Assay results published in a melting point compilation (Tetko et al.; mined from patent text by program, amines drawn as free bases though some values may be those of a salt).

| Compound | melting point [°C] |
| --- | --- |
| FC(F)(F)c1cccc(C2=CCN(CCc3ccc4cc[nH]c4c3)CC2)c1 | 168 to 169 |
| C=CCOC(=O)C1=C2c3ccccc3CC[C@@H]2[C@@H]2[C@@H]([C@@H](C)O)C(=O)N12 | 133 to 134 |
| O=C(O)c1ncccc1CCc1cccc(F)c1 | 118 to 122 |
| CC(=O)OC1CCN2C(=O)N(c3ccc(C#N)c4ccccc34)C(=O)C12 (stereo not given) | 105 |
| CCc1nc2c(N)nc3cc(OS(C)(=O)=O)ccc3c2n1CCOc1ccccc1 | 213 to 214 |
| O=C(C#Cc1ccc(CN2CCCCC2)cc1)Nc1ccc(-c2ccc(Cl)cc2)cc1 | 180 |
| COC(=O)Cc1cc(Cl)c2c(c1)CCC(c1ccccc1)N2C (stereo not given) | 78 to 80 |
| Oc1ccc2c(c1)COc1cc3cc(O)ccc3cc1-2 | 231 to 233 |
| CC(=O)c1nn(-c2c(Cl)cc(C(F)(F)F)cc2Cl)c(NSC(F)(F)F)c1S(C)=O (stereo not given) | 67 to 102 |
| Cc1ccc(C2OC(=O)N(C(=O)NN3CCOCC3)C2C)cc1 (stereo not given) | 124 to 125 |
| CC(CN1CCC(Nn2cccc2)CC1)c1ccccc1 (stereo not given) | 72 to 74 |
| COC(=O)C1(O)CN2CCC1CC2 (stereo not given) | 122 |
| O=C(O)c1c(-c2cccc([N+](=O)[O-])c2)oc2ncnc(O)c12 | > 300 |
| Cc1cc(C)c(Nc2nc(C)ccc2S(=O)(=O)c2ccc(OCc3c(F)cccc3[N+](=O)[O-])cc2)c(C)c1 | 132 to 134 |
| CC(NC(=O)Nc1ccc(Br)cn1)c1ncccc1F (stereo not given) | 151 to 154 |
| COc1ccc(Oc2ccc3nc(COc4ccc(CC5SC(=O)NC5=O)cc4)n(C)c3c2)cc1 (stereo not given) | 122 to 126 |
| CC(=O)N1C(=O)OC[C@H]1c1ccccc1 | 94 |
| CCOC(=S)SC(=CC(=O)c1cc(Cl)c(C)c(Cl)c1)C(=O)O | 126 to 128 |
| Nc1ccc2nc(-c3ccc4c(c3)OCCO4)ncc2c1 | 179 to 182 |
| O=C1c2ccccc2C(=O)N1Cc1ccc(SC(F)(F)F)cc1 | 130 to 132 |
| COc1ccc(-c2cccc(-c3ccc(OC)c(F)c3)n2)cc1F | 108 |
| Cc1ccc(C2=CCN(CCCn3c(=O)[nH]c4cccc(C)c4c3=O)CC2)cc1 | 165 to 170 |

| Compound | melting point [°C] |
| --- | --- |
| CC12CCC(=O)NC1=CCc1cc(F)ccc12 (stereo not given) | 202 |
| O=C(Nc1cccc(F)n1)c1cc(-c2ccc(Cl)cc2)nc2ccccc12 | 200 to 201 |
| Cc1ccc(-c2c(Cl)nc(C#N)n2S(=O)(=O)c2c(C)noc2C)cc1 | 103 to 108 |
| O=C(c1cccc(CBr)c1)c1cccc(CBr)c1 | 147 to 148 |
| CCCCc1ncc(/C=C(\Cc2cccs2)C(=O)O)n1Cc1cccc(Cl)c1Cl | 184 to 185 |
| Cn1cnnc1C(O)(c1ccc(I)cc1)c1ccc2c(c1)c(-c1cccc(Cl)c1)nc1nnnn12 (stereo not given) | 228 |
| COc1cc(CN2CCN(C(=O)C3=Cc4ccc(OC(=O)c5ccccc5)cc4CC3)CC2)cc(OC)c1OC | 117 to 119 |
| CCOC(=O)c1c(Cl)c(-c2ncc(Cl)cc2F)nn1C | 77 to 79 |
| COc1ccc(N(C(=O)CN2C(=O)C(Cc3n[nH]c4ccccc34)C(=O)N(c3cccnc3)c3ccccc32)C(C)C)cc1 (single isomer, unassigned; (+)) | 214 to 215 |
| O=C(O)c1cn(-c2nncs2)c2cc(F)c(F)cc2c1=O | 233 to 236 |
| Cc1cc2c(c3c1NC(=O)C(C)(C)C3)OC(CBr)C2C (stereo not given) | 192 to 193 |
| CC1(C)CCC(C)(C)c2cc(-c3cc(-c4ccc(C(=O)N5CCOCC5)cc4)ccc3-c3ccccc3)ccc21 | 223 |
| COc1cc2ncnc(NC3=CC(=O)C(N(C)c4ccccc4)=CC3=O)c2cc1OC | 204 to 206 |
| O=C(O)CCN1CCN(C2=Nc3ccccc3Sc3ccc(Cl)cc32)CC1 | 120 to 121 |
| CC(C)(Cc1ccccc1)C(NC(=O)COc1ccccc1)Nc1c(Nc2cccnc2)c(=O)c1=O (stereo not given) | 249 to 250 |
| COc1c(F)ccc2c1C(=O)N1CC[C@H]1c1c(-c3noc(CN)n3)ncn1-2 | 196 to 198 |
| O=c1oc(=O)n(-c2ccccc2)c2ncccc12 | 196 to 198 |
| O=C(CCCC(=O)Oc1ccc(C(=O)OCc2ccccc2)cc1)Oc1ccc(C(=O)OCc2ccccc2)cc1 | 93 to 94 |
| N=C(Nc1ccc(CCNC(=O)C(F)(F)F)cc1)c1cccs1 | 181 to 182 |
| OCCCN1CCC(C(O)(c2ccc(F)cc2)c2ccc(F)cc2)CC1 | 155 to 157 |
| CN(C)C1(c2ccccc2)CCC(CNC(=O)N2CCC(c3c[nH]c4ccc(Cl)cc34)CC2)CC1 (stereo not given) | 140 to 143 |

Second part, the compound after the results:

| melting point [°C] | Compound |
| --- | --- |
| 186 to 187 | COC(=O)c1cc(C(=O)OC)cc(N2C(=O)C=CC2=O)c1 |
| 200 to 202 | COc1ccc(-c2cnc(N3CCc4c([nH]c5ccccc45)C3c3ccc4c(c3)OCO4)nc2)cc1 (stereo not given) |
| 137 | Cc1ccc(S(=O)(=O)N2[C@@H](C(N)=O)CC[C@H]2c2ccc(F)cc2)cc1 (racemic) |
| 74 to 76 | CCCc1ccc(NCc2ccc(N(C)C)cc2)cc1 |
| 99 to 100 | OC1CCc2cc3ccccc3n2C1 (stereo not given) |
| 89 | CON(C)C(=O)c1cc([N+](=O)[O-])c(F)cc1Cl |
| 104 to 105 | COc1ccc(C2(c3ccc(OC(F)F)cc3)N=C(N)N(C)C2=O)cc1C#N (stereo not given) |
| 95 to 98 | COc1cc(CC#N)nc(N)n1 |
| 130 to 132 | Cc1c(C(C)N(O)C(N)=O)sc2ccccc12 (stereo not given) |
| 238 to 240 | CN1CCC2(CCc3c(C4=C(c5cn(C)c6ccccc56)C(=O)OC4=O)c4ccccc4n3C2)C1 (stereo not given) |
| 130 | CS(=O)(=O)Nc1ccc(CCOc2ccc(C=C3SC(=O)NC3=O)cc2)cc1 |
| 80 to 81 | CC(C)c1cc(-c2ccc(F)cc2)n(-c2ccccn2)n1 |
| 163 | Oc1cnc(C2CCCCC2)nc1 |
| 233 to 235 | O=C(NCc1ccncc1)c1[nH]c2ccc(Cl)cc2c1S(=O)c1ccccc1 (stereo not given) |
| 176 to 182 | OCC1CCc2ncsc2C1 (stereo not given) |
| 94 to 95 | COc1noc2c(C)cc(C#CCCN3CCOC3=O)cc12 |
| 159 to 161 | CCOC(=O)C1=C(C)NC(C)=C(C(=O)OCC)C1c1ccccc1O |
| 174 | OCC=Cc1cccc(-c2nnn[nH]2)c1 |
| 92 to 93 | CC(C)C(O)=C(C#N)C#N |

| melting point [°C] | Compound |
| --- | --- |
| 131 to 140 | COc1cccc2c(CCCN(C3CCC3)C3COc4c(F)ccc(C(N)=O)c4C3)coc12 (stereo not given) |
| 84 to 85 | CCCCCCCCCCCCCCCC(=O)NCCCSc1ccncc1 |
| 164 to 166 | COc1ccc(C(=O)c2cccc3c2CCC3C(N)=O)cc1 (stereo not given) |
| 136 to 137 | O=C1c2cc(O)ccc2CCN1Cc1cccnc1 |
| 92 to 94 | CC(C)(C)NS(=O)(=O)c1sc([Si](C)(C)C)cc1C(F)=C(F)C(F)(F)F |
| 176 to 177 | CCCSc1ncc(C(=O)N[C@H](Cc2ccccc2)C(=O)O)n1Cc1ccccc1Cl |
| 202 to 203 | CCCc1nc2c(N)nc3ccccc3c2n1CCCCC(N)=O |
| 173 to 175 | CCn1c(=O)n(O)c(=O)c2cc(F)c(N3CCCCC3)cc21 |
| 177 to 179 | CC(=O)OC1C(COC(=O)c2ccccc2)OC(n2cc(F)c(=O)[nH]c2=O)C1F (stereo not given) |
| 132 | O=C(CCc1nc(-c2ccccn2)no1)NC1CCN(Cc2ccc(Cl)c(F)c2)CC1 |
| 118 to 119 | Nc1cc(Br)ccc1-c1ccc(Br)cc1N |
| 190 to 194 | O=C(Nc1ccccc1)c1cc(Oc2ccc(C(F)(F)F)cc2Cl)ccc1[N+](=O)[O-] |
| 82 to 83 | Cc1ccc(C(=C/C=C/CO)c2ccc(C)cc2)cc1 |
| 169 to 174 | CN(C)CCSc1c2ccccc2c(-c2cc(Br)c(O[C@H](Cc3ccccc3)C(=O)O)c(Br)c2)c2c1sc1ccccc12 |
| 136 to 137 | O=c1c([N+](=O)[O-])c(Cl)nc2sc(CCC3CCCCC3)nn12 |
| 176 to 179 | CC(Oc1ccc(Cl)cc1Cl)c1nnc(N=C=O)s1 (stereo not given) |
| 198 | O=C(O)C1=CS[C@@H]2/C(=C\c3cc4c(s3)CCN(Cc3ccccc3)C4)C(=O)N12 |
| 107 to 109 | CC[C@@H](c1ccccc1)N(Cc1ccc(C(=O)OC)cc1)S(=O)(=O)c1ccc(F)cc1 |
| 96 to 99 | CCCC1(C(=O)NCc2ccc(N3Cc4ccccc4C3=O)cc2)c2ccccc2-c2ccccc21 |

| melting point [°C] | Compound |
| --- | --- |
| 176 to 178 | Cc1ccc(S(=O)(=O)NCCCCOc2ccc(N)cc2)cc1 |
| 138 to 139 | CCOC(OCC)c1ccccc1CN(CCn1ccc2oc(C)cc2c1=O)Cc1ccc2c(c1)N(C)C(=O)C(C)(C)C(=O)N2CC |
| 54 | CC(C)(O)C(=O)c1ccc(OCC2CO2)cc1 (stereo not given) |
| 45 to 47 | N#CCc1cc(CO)cs1 |
| > 250 | O=C(NCCO)c1cnc(NCCO)cc1Nc1ccc(I)cc1F |
| 172 to 175 | COc1nsc2nc3ccccc3n12 |
| 70 | CC(=O)C1=Cc2cc(Br)ccc2OC1 |
| 208 to 209 | COc1cc(CNc2n[nH]c3ncnc(Nc4cccc(Cl)c4)c23)cc(OC)c1 |
| 202 to 204 | N[C@H]1CC[C@@H](C(=O)N2CCC(c3[nH]nc4c3C(=O)c3c(NC(=O)NN5CCOCC5)cccc3-4)CC2)CC1 |
| 127 to 129 | C=C1CCc2c(c3ccccc3n2C)C1=O |
| 106 to 107 | CC(=O)NCCn1c(C)ccc1C |
| 209 to 210 | CCCCc1ccc(-c2cc(C(=O)O)cc(-c3ccc(Cl)cc3)n2)cc1 |
| 93 to 94 | CON=CC1=CCCN(C(=O)OCCc2ccc([N+](=O)[O-])cc2)C1 |
| 237 to 238 | CSc1nnc2c(=O)[nH]c(-c3ccccc3OCC(C)C)nc2n1 |
| 160 to 162 | COC(=O)[C@@H]1OCN(NS(=O)(=O)c2ccc([N+](=O)[O-])cc2)[C@H]1c1ccccc1 |
| 120 to 123 | Cc1cc(Oc2c(Cl)cc(C(F)(F)F)cc2[N+](=O)[O-])n[nH]1 |
| 175 to 176 | COC(=O)C(=O)c1ccc(NC(=O)COc2ccc3ccccc3c2)cc1 |
| 167 to 168 | COCCOCCOc1ccc2sc(C(=O)Nc3ccccc3N)cc2c1 |
| 159 to 160 | CN1OCC(=O)N(c2ccc(Oc3ccccc3)cc2)C1=S |
